Test results: patent US7517874B2 (priority 2007, dated 2009)
Like-named read-outs stand apart in the source and are kept apart here.

Experiments:
[1] = target: T1, rat CB2 receptor (rCB2) (Rattus norvegicus, UniProt Q9QZN9); assay: cell-based; assay type: cell-based; details: for +/− RCB2: agonist or inverse agonist at rCB2
T1 sequence (Q9QZN9 1-360): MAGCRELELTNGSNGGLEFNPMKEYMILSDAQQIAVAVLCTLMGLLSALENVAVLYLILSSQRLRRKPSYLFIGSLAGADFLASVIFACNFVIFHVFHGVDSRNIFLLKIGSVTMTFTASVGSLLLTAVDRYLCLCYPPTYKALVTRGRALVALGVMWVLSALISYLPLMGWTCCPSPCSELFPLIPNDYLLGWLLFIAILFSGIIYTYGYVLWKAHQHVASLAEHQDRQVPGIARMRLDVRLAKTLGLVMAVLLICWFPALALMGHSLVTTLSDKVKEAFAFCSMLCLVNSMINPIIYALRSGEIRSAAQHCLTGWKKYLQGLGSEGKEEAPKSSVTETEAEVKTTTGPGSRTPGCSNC
Outline: (§1)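 Agonism or inverse agonism was assessed as change in intracellular cAMP in CHO-K1 cells expressing human CB1 or rat CB2 (genomic DNA, pcDNA3.1).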

[2] = target: human CB1 receptor (hCB1) (Homo sapiens, UniProt P21554); assay: cell-based; assay type: cell-based; details: for +/− HCB1: agonist or inverse agonist at hCB1
Outline: as §1

[3] = groups >100 nM-10 μM and >10 μM, cAMP, CHO-K1 rCB2, read-out: EC50 RCB2
[4] = groups >100 nM-10 μM and >10 μM, cAMP, CHO-K1 hCB1, read-out: EC50 HCB1

human CB1 receptor (hCB1), sequence (P21554 whole entry): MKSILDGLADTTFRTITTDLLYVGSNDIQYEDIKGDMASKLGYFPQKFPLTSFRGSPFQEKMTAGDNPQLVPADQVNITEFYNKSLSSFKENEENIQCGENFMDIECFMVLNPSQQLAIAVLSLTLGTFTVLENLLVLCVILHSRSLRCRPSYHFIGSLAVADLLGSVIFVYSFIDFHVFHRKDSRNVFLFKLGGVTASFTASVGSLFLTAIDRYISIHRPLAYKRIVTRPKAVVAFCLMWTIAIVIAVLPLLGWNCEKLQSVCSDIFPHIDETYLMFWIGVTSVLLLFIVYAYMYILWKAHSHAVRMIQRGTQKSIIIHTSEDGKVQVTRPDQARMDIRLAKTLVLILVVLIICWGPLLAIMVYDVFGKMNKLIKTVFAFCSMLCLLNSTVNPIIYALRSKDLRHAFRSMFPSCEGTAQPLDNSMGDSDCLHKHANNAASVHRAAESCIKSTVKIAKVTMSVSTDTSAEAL

Which results are given for `C[C@@H](NC(=O)c1nc(-c2ccccc2)n2c1CN(C)CC2)C(C)(C)C` [Compound 50, (R)-N-(3,3-dimethylbutan-2-yl)-7-methyl-3-phenyl-5,6,7,8-tetrahydroimidazo[1,5-a]pyrazine-1-carboxamide]?
EC50 [1, 3]: > 10000 nM; EC50 [2, 4]: > 10000 nM

How did the “+/− RCB2” value [1] turn out when `C=C(c1nc(C(=O)N[C@H](C(=O)NC)C(C)(C)C)c2n1CCCN(C)C2)C(F)(F)F` [Compound 453, (S)-N-(3,3-dimethyl-1-(methylamino)-1-oxobutan-2-yl)-8-methyl-3-(3,3,3-trifluoroprop-1-en-2-yl)-6,7,8,9-tetrahydro-5H-imidazo[1,5-a][1,4]diazepine-1-carboxamide] was run?
Its value is “+”.

What about the EC50 [2] of the same compound?
Its EC50 is > 10000 nM.

How did the “+/− RCB2” value [1] turn out when `CNC(=O)[C@@H](NC(=O)c1nc(-c2cccc(F)c2)n2c1CN(C)CC2)C(C)(C)C` [Compound 244, (S)-N-(3,3-dimethyl-1-(methylamino)-1-oxobutan-2-yl)-3-(3-fluorophenyl)-7-methyl-5,6,7,8-tetrahydroimidazo[1,5-a]pyrazine-1-carboxamide] was run?
The value was “+”.

What about the EC50 [2] of the same compound?
The EC50 was > 10000 nM.

With `CNC(=O)[C@@H](NC(=O)c1nc(-c2cc(C(F)(F)F)ccc2F)n2c1CN(C)CCC2)C(C)(C)C` [Compound 363, (S)-N-(3,3-dimethyl-1-(methylamino)-1-oxobutan-2-yl)-3-(2-fluoro-5-(trifluoromethyl)phenyl)-8-methyl-6,7,8,9-tetrahydro-5H-imidazo[1,5-a][1,4]diazepine-1-carboxamide] as the compound, how does the “+/− RCB2” value [1] read?
Its value is “−”.

What about the EC50 [2] of the same compound?
The EC50 was > 10000 nM.

Which “+/− RCB2” value [1] does the source give for `CNC(=O)[C@@H](NC(=O)c1nc(-c2ccc(C(C)(C)C)cc2)n2c1CN(C)CCC2)C(C)(C)C` [Compound 414, (S)-3-(4-tert-butylphenyl)-N-(3,3-dimethyl-1-(methylamino)-1-oxobutan-2-yl)-8-methyl-6,7,8,9-tetrahydro-5H-imidazo[1,5-a][1,4]diazepine-1-carboxamide] here?
The value was “−”.

And the EC50 [2]?
The EC50 was > 10000 nM.

What does the source list for `CN1CCCn2c(-c3ccccc3)nc(C(=O)Nc3cc(C(C)(C)C)on3)c2C1` [Compound 595, N-(5-tert-butylisoxazol-3-yl)-8-methyl-3-phenyl-6,7,8,9-tetrahydro-5H-imidazo[1,5-a][1,4]diazepine-1-carboxamide]?
+/− RCB2 [1]: −; EC50 [2]: > 10000 nM

For `CNC(=O)[C@@H](NC(=O)c1nc(CCCN2CCCCC2)n2c1CN(C)CCC2)C(C)(C)C` [Compound 501, (S)-N-(3,3-dimethyl-1-(methylamino)-1-oxobutan-2-yl)-8-methyl-3-(3-(piperidin-1-yl)propyl)-6,7,8,9-tetrahydro-5H-imidazo[1,5-a][1,4]diazepine-1-carboxamide], which “+/− RCB2” value [1] is on record?
Its value is “+”.

What about the EC50 [2] of the same compound?
The EC50 was > 10000 nM.

For `CNC(=O)[C@@H](NC(=O)c1nc(C2=CCOCC2)n2c1CN(C)CCC2)C(C)(C)C` [Compound 594, (S)-3-(3,6-dihydro-2H-pyran-4-yl)-N-(3,3-dimethyl-1-(methylamino)-1-oxobutan-2-yl)-8-methyl-6,7,8,9-tetrahydro-5H-imidazo[1,5-a][1,4]diazepine-1-carboxamide], which “+/− RCB2” value [1] is on record?
The value was “+”.

And the “+/− HCB1” value [2]?
Its value is “+”.

Which results are given for `CNC(=O)[C@@H](NC(=O)c1nc(-c2cccc(F)c2)n2c1CNCC2)C(C)(C)C` [Compound 4, (S)-N-(3,3-dimethyl-1-(methylamino)-1-oxobutan-2-yl)-3-(3-fluorophenyl)-5,6,7,8-tetrahydroimidazo[1,5-a]pyrazine-1-carboxamide]?
EC50 [1]: > 10000 nM; EC50 [2]: > 10000 nM

`CNC(=O)[C@@H](NC(=O)c1nc(-c2cc(F)ccc2F)n2c1CN(C)CCC2)C(C)(C)C` [Compound 359, (S)-3-(2,5-difluorophenyl)-N-(3,3-dimethyl-1-(methylamino)-1-oxobutan-2-yl)-8-methyl-6,7,8,9-tetrahydro-5H-imidazo[1,5-a][1,4]diazepine-1-carboxamide] was tested. Which “+/− RCB2” value [1] did it give?
The value was “+”.

And the EC50 [2]?
The EC50 was > 10000 nM.

What does the source list for `CNC(=O)c1cc(-c2nc(C(=O)N[C@H](C(=O)NC)C(C)(C)C)c3n2CCCN(C)C3)ccc1F` [Compound 406, (S)-N-(3,3-dimethyl-1-(methylamino)-1-oxobutan-2-yl)-3-(4-fluoro-3-(methylcarbamoyl)phenyl)-8-methyl-6,7,8,9-tetrahydro-5H-imidazo[1,5-a][1,4]diazepine-1-carboxamide]?
+/− RCB2 [1]: +; EC50 [2]: > 10000 nM

For `CNC(=O)[C@@H](NC(=O)c1nc(-c2c(C)noc2C)n2c1CN(C)CCC2)C(C)(C)C` [Compound 442, N-((S)-3,3-dimethyl-1-(methylamino)-1-oxobutan-2-yl)-3-(3,5-dimethylisoxazol-4-yl)-8-methyl-6,7,8,9-tetrahydro-5H-imidazo[1,5-a][1,4]diazepine-1-carboxamide], which “+/− RCB2” value [1] is on record?
The value was “+”.

What about the “+/− HCB1” value [2] of the same compound?
Its value is “+”.

With `COC(=O)N1CCn2c(-c3ccc(Cl)cc3)nc(C(=O)N[C@H](CO)C(C)(C)C)c2C1` [Compound 184, (S)-methyl 3-(4-chlorophenyl)-1-(1-hydroxy-3,3-dimethylbutan-2-ylcarbamoyl)-5,6-dihydroimidazo[1,5-a]pyrazine-7(8H)-carboxylate] as the compound, how does the “+/− RCB2” value [1] read?
Its value is “−”.

And the EC50 [2]?
The EC50 was > 10000 nM.

`CNC(=O)[C@@H](NC(=O)c1nc(-c2ccccc2)n2c1CN(C(C)=O)CCC2)C(C)(C)C` [Compound 463, (S)-8-acetyl-N-(3,3-dimethyl-1-(methylamino)-1-oxobutan-2-yl)-3-phenyl-6,7,8,9-tetrahydro-5H-imidazo[1,5-a][1,4]diazepine-1-carboxamide] was tested. Which “+/− RCB2” value [1] did it give?
Its value is “+”.

What about the EC50 [2] of the same compound?
Its EC50 is > 10000 nM.

What does the source list for `CNC(=O)[C@@H](NC(=O)c1nc(-c2ccccc2)n2c1CN(C)CC2)c1ccccc1` [Compound 207, (S)-7-methyl-N-(2-(methylamino)-2-oxo-1-phenylethyl)-3-phenyl-5,6,7,8-tetrahydroimidazo[1,5-a]pyrazine-1-carboxamide]?
+/− RCB2 [1]: +; EC50 [2]: > 10000 nM

What does the source list for `CN1CCn2c(-c3ccccc3)nc(C(=O)NC(C)(C)CO)c2C1` [Compound 230, N-(1-hydroxy-2-methylpropan-2-yl)-7-methyl-3-phenyl-5,6,7,8-tetrahydroimidazo[1,5-a]pyrazine-1-carboxamide]?
EC50 [1, 3]: > 10000 nM; EC50 [2, 4]: > 10000 nM

What does the source list for `CC(C)CCNC(=O)c1nc(-c2ccc(Cl)cc2)n2c1CN(C(=O)OC(C)(C)C)CC2` [Compound 33, tert-butyl 3-(4-chlorophenyl)-1-(isopentylcarbamoyl)-5,6-dihydroimidazo[1,5-a]pyrazine-7(8H)-carboxylate]?
+/− RCB2 [1]: −; EC50 [2, 4]: > 10000 nM

Which “+/− RCB2” value [1] does the source give for `CNC(=O)[C@@H](NC(=O)c1nc(C2=CCC3(CC2)OCCO3)n2c1CN(C)CCC2)C(C)(C)C` [Compound 448, (S)-N-(3,3-dimethyl-1-(methylamino)-1-oxobutan-2-yl)-8-methyl-3-(1,4-dioxaspiro[4.5]dec-7-en-8-yl)-6,7,8,9-tetrahydro-5H-imidazo[1,5-a][1,4]diazepine-1-carboxamide] here?
Its value is “+”.

And the “+/− HCB1” value [2]?
Its value is “+”.

What does the source list for `CNC(=O)[C@H](CC(C)(C)C)NC(=O)c1nc(-c2ccc(C(F)(F)F)cc2F)n2c1CN(C)CCC2` [Compound 551, (S)-N-(4,4-dimethyl-1-(methylamino)-1-oxopentan-2-yl)-3-(2-fluoro-4-(trifluoromethyl)phenyl)-8-methyl-6,7,8,9-tetrahydro-5H-imidazo[1,5-a][1,4]diazepine-1-carboxamide]?
+/− RCB2 [1]: +; +/− HCB1 [2]: +

How did the “+/− RCB2” value [1] turn out when `CCCNC(=S)N1CCn2c(-c3ccccc3)nc(C(=O)N[C@H](C(=O)NC)C(C)(C)C)c2C1` [Compound 195, (S)-N-(3,3-dimethyl-1-(methylamino)-1-oxobutan-2-yl)-3-phenyl-7-(propylcarbamothioyl)-5,6,7,8-tetrahydroimidazo[1,5-a]pyrazine-1-carboxamide] was run?
The value was “−”.

What about the EC50 [2] of the same compound?
The EC50 was > 10000 nM.

For `CNC(=O)[C@H](CC(C)(C)C)NC(=O)c1nc(-c2ccc(F)cc2F)n2c1CN(C)CCC2` [Compound 549, (S)-3-(2,4-difluorophenyl)-N-(4,4-dimethyl-1-(methylamino)-1-oxopentan-2-yl)-8-methyl-6,7,8,9-tetrahydro-5H-imidazo[1,5-a][1,4]diazepine-1-carboxamide], which EC50 [1] is on record?
The EC50 was > 10000 nM.

What about the EC50 [2] of the same compound?
The EC50 was > 10000 nM.

Which “+/− RCB2” value [1] does the source give for `CNC(=O)[C@@H](NC(=O)c1nc(-c2cc3ccccc3o2)n2c1CN(C)CCC2)C(C)(C)C` [Compound 351, (S)-3-(benzofuran-2-yl)-N-(3,3-dimethyl-1-(methylamino)-1-oxobutan-2-yl)-8-methyl-6,7,8,9-tetrahydro-5H-imidazo[1,5-a][1,4]diazepine-1-carboxamide] here?
Its value is “+”.

What about the EC50 [2] of the same compound?
Its EC50 is > 10000 nM.

Which results are given for `CNC(=O)[C@@H](NC(=O)c1nc(-c2ccc(S(C)(=O)=O)cc2)n2c1CN(C)CCC2)C(C)(C)C` [Compound 379, (S)-N-(3,3-dimethyl-1-(methylamino)-1-oxobutan-2-yl)-8-methyl-3-(4-(methylsulfonyl)phenyl)-6,7,8,9-tetrahydro-5H-imidazo[1,5-a][1,4]diazepine-1-carboxamide]?
EC50 [1]: > 10000 nM; EC50 [2]: > 10000 nM

Which results are given for `CNC(=O)[C@H](C)NC(=O)c1nc(-c2ccccc2)n2c1CN(S(=O)(=O)c1ccc(F)cc1)CC2` [Compound 110, (S)-7-(4-fluorophenylsulfonyl)-N-(1-(methylamino)-1-oxopropan-2-yl)-3-phenyl-5,6,7,8-tetrahydroimidazo[1,5-a]pyrazine-1-carboxamide]?
+/− RCB2 [1]: +; EC50 [2]: > 10000 nM
